Reference: US20260248784A1, “BTK Degrader and Use Thereof” (JIANGSU VCARE PHARMATECH CO., LTD., priority 2023, published 2026)
Where two headings read alike, the source gives them in different places.

Tests used:
mino cells = experiment: Activity test in Mino cells (CCK8 proliferation inhibition); assay type: cell-based; settings: Homo sapiens, 72 h, 3 days, read-out: Cell inhibition IC50
Description: Cell culture: mino cells (culture conditions: RPMI1640 medium+15% FBS, 37° C., 5% CO2). Cell plating: The cells subcultured into the logarithmic growth phase were collected and transferred into a centrifuge tube, and centrifuged at 800 rpm for 5 min. The cells were resuspended in complete medium and counted. The cells were diluted and adjusted to a final concentration of 200000 cells/mL. The cells were then seeded into a 96-well plate with 100 μL per well. Cell administration: Each group of drug solutions was added into the 96-well plate, 100 μL per well, n=3 for each drug concentration. Meanwhile, negative wells (n=6) and blank wells (n=3) were set up. The 96-well plate was incubated in the incubator for further 3 days. CCK8 reagent was added to the 96-well plate, 20 μL per well, and then the plate was placed in the incubator for further 4 h. The absorbance of the solution was measured at a wavelength of 450 nm using an enzyme reader. The proliferation inhibition rate was calculated and the half inhibitory concentration IC50 value was calculated.

[1] = Brain tissue distribution test in mice; assay type: in vivo; settings: IV 10 mg/kg; for AUC(0-inf) / AUC(0-t) / MRT / half-life: mouse; for half-life: read-out: T½ (converted)
Description: Mice were weighed and dosed, and about 50 μL of whole blood was collected from the orbital venous plexus at 5 min, 0.25 h, 0.5 h, 1 h, 2 h, 4 h, 6 h, 8 h, and 24 h after administration, using EDTA-K2 as anticoagulant. At the same time, the animals were euthanized, and the brains were removed, and the brain tissue samples were stored in a −80° C. refrigerator until analysis. The blood samples were centrifuged at 4000 rpm for 10 min at 4° C., and 20 μL of the supernatant plasma sample was taken into an EP tube and immediately stored in a −80° C. refrigerator until analysis. 10 μL of the plasma sample was transferred to a 96-well plate and 250 μL of acetonitrile (containing internal standard) was added to precipitate proteins. The samples were centrifuged at 4000 rpm/min for 20 min in a 4° C. centrifuge. The supernatant was transferred and injected into LC MS/MS to detect the drug concentration. The brain tissue samples were weighed and homogenized with 4 times ice-cold PBS, and 50 μL of the brain tissue homogenate was transferred to a 96-well plate. 500 μL of acetonitrile (containing internal standard) was added to precipitate the protein. The samples were centrifuged at 4000 rpm/min for 20 min in a 4° C. centrifuge. 380 μL of the supernatant was transferred to a new 96-well plate and 380 μL of 0.1% formic acid in water was added and mixed thoroughly. 10 μL of the sample was taken and injected into LC MS/MS to detect the drug concentration. The data were processed by Thermo LC Quan software, and the standard curve was established using the internal standard method, with the theoretical standard curve concentration as the abscissa and the peak area ratio as the ordinate (test compound peak area/internal standard peak area). Sample concentrations were calculated using the standard curve. The pharmacokinetic parameters were calculated using WinNonlin 8.2 software.

Mino cell xenograft = experiment: Activity test in Mino cell xenograft model; assay type: in vivo, NOD SCID mice; settings: for Tumor volume: end of experiment, Mean ± SD

Row | SMILES | IC50 (mino cells) | also measured
1 | COc1ccc(F)cc1C(=O)NCc1ccc(-c2nc(-c3ccc(N4CCN(CC5CCN(c6ccc(C7CCC(=O)NC7=O)cc6)CC5)CC4)cc3)n3ccnc(N)c23)cc1 (stereo not drawn) [Compound I-18] | < 25 nM | B/P Ratio AUC (brain)/AUC (plasma) [1]: 6.86% ± 0.01; AUC(0-inf) ([1]; brain): 2710 ± 149 ng·h/mL; AUC(0-t) ([1]; brain): 2270 ± 126 ng·h/mL; MRT ([1]; brain): 7.17 ± 0.59 h; half-life ([1]; brain): 9.39 ± 3.04 h; AUC(0-inf) ([1]; plasma): 39800 ± 4460 ng·h/mL; AUC(0-t) ([1]; plasma): 39100 ± 5080 ng·h/mL; MRT ([1]; plasma): 4.88 ± 0.14 h; half-life ([1]; plasma): 4.44 ± 1.38 h
2 | COc1ccc(F)cc1C(=O)NCc1ccc(-c2nc(-c3ccc(N4CCN(CC5CCN(c6ccc(N7CCC(=O)NC7=O)c(C)c6)CC5)CC4)cc3)n3ccnc(N)c23)cc1 [Compound I-40] | < 25 nM | TGITV (Relative tumor volume inhibition rate) (Mino cell xenograft; 30 mg/kg): 76.65%; Tumor volume (Mino cell xenograft; 30 mg/kg): 1146.34 ± 435.82 mm^3
3 | COc1ccc(F)cc1C(=O)NCc1ccc(-c2nn(-c3ccc(N4CCN(CC5CCN(c6ccc7c(c6)CN(C6CCC(=O)NC6=O)C7=O)CC5)CC4)nc3)c3ncnc(N)c23)cc1F (stereo not drawn) [II-5, N-(4-(4-amino-1-(6-(4-((1-(2-(2,6-dioxopiperidin-3-yl)-1-oxoisoindolin-5-yl)piperidin-4-yl)methyl)piperazin-1-yl)pyridin-3-yl)-1H-pyrazolo[3,4-d]pyrimidin-3-yl)-2-fluorobenzyl)-5-fluoro-2-methoxybenzamide] | 9 nM | 
4 | COc1ccc(F)cc1C(=O)NCc1ccc(-c2nn(-c3ccc(N4CCN(CC5CCN(c6ccc7c(c6)C(=O)N(C6CCC(=O)NC6=O)C7=O)CC5)CC4)nc3)c3ncnc(N)c23)cc1C (stereo not drawn) [II-6, N-(4-(4-amino-1-(6-(4-((1-(2-(2,6-dioxopiperidin-3-yl)-1,3-dioxoisoindol-5-yl)piperidin-4-yl)methyl)piperazin-1-yl)pyridin-3-yl)-1H-pyrazolo[3,4-d]pyrimidin-3-yl)-2-methylbenzyl)-5-fluoro-2-methoxybenzamide] | 21 nM | 
5 | COc1ccc(F)cc1C(=O)NCc1ccc(-c2nn(-c3ccc(C4CCN(CC5CCN(c6ccc7c(c6)C(=O)N(C6CCC(=O)NC6=O)C7=O)CC5)CC4)nc3)c3ncnc(N)c23)cc1 (stereo not drawn) [II-7, N-(4-(4-amino-1-(6-(1-((1-(2-(2,6-dioxopiperidin-3-yl)-1,3-dioxoisoindolin-5-yl)piperidin-4-yl)methyl)piperidin-4-yl)pyridin-3-yl)-1H-pyrazolo[3,4-d]pyrimidin-3-yl)benzyl)-5-fluoro-2-methoxybenzamide] | 18 nM | 
6 | COc1ccc(F)cc1C(=O)NCc1ccc(-c2nn(-c3ccc(N4CCN(CC5CCN(c6ccc7c(c6)C(=O)N(C6CCC(=O)NC6=O)C7)CC5)CC4)cc3)c(N)c2C(N)=O)cc1 (stereo not drawn) [II-10] | < 25 nM | 
7 | COc1ccc(F)cc1C(=O)NCc1ccc(-c2nn(-c3ccc(N4CCN(CC5CCN(c6ccc7c(c6)CN(C6CCC(=O)NC6=O)C7=O)CC5)CC4)nc3)c3ccnc(N)c23)cc1 (stereo not drawn) [II-12, N-(4-(4-amino-1-(6-(4-((1-(2-(2,6-dioxopiperidin-3-yl)-1-oxoisoindol-5-yl)piperidin-4-yl)methyl)piperazin-1-yl)pyridin-3-yl)-1H-pyrazolo[4,3-c]pyridin-3-yl)benzyl)-5-fluoro-2-methoxybenzamide] | < 500 nM | 
8 | COc1ccc(F)cc1C(=O)NCc1ccc(-n2c(=O)n(-c3ccc(N4CCN(CC5CCN(c6ccc7c(c6)CN(C6CCC(=O)NC6=O)C7=O)CC5)CC4)cc3)c3ccnc(N)c32)cc1 (stereo not drawn) [II-24, N-(4-(4-amino-1-(4-(-4-((1-(2-(2,6-dioxopiperidin-3-yl)-1-oxoisoindol-5-yl)piperidin-4-yl)methyl)piperazin-1-yl)phenyl)-2-oxo-1,2-dihydro-3H-imidazo[4,5-c]pyridin-3-yl)benzyl)-5-fluoro-2-methoxybenzamide] | < 50 nM | 
9 | COc1ccc(F)cc1C(=O)NCc1ccc(-c2nn(-c3ccc(N4CCN(CC5CCN(c6ccc7c(c6)C(=O)N(C6CCC(=O)NC6=O)C7)CC5)CC4)nc3)c(N)c2C(N)=O)cc1 (stereo not drawn) [II-34, 5-amino-1-(6-(4-((1-(2-(2,6-dioxopiperidin-3-yl)-3-oxoisoindolin-5-yl)piperidin-4-yl)methyl)piperazin-1-yl)pyridin-3-yl)-4-(((5-fluoro-2-methoxybenzamido)methyl)phenyl)-1H-pyrazole-4-carboxamide] | < 25 nM | 
10 | Nc1ncnc2c1c(-c1ccc(Oc3ccccc3)cc1)nn2-c1ccc(N2CCC(CN3CCN(c4ccc5c(c4)C(=O)N(C4CCC(=O)NC4=O)C5=O)CC3)CC2)nc1 (stereo not drawn) [II-37, 5-(4-((1-(5-(4-amino-3-(4-phenoxyphenyl)-1H-pyrazolo[3,4-d]pyrimidin-1-yl)pyridin-2-yl)piperidin-4-yl)methyl)piperazin-1-yl)-2-(2,6-dioxopiperidin-3-yl) isoindoline-1,3-dione] | < 25 nM | 
11 | COc1ccc(F)cc1C(=O)NCc1ccc(-c2nn(-c3ccc(N4CCN(CC5CCN(c6ccc7c(c6)CN(C6CCC(=O)NC6=O)C7=O)CC5)C[C@@H]4C)nc3)c3ncnc(N)c23)cc1 (stereo partly drawn) [II-38, N-(4-(4-amino-1-(6-((2S)-4-((1-(2-(2,6-dioxopiperidin-3-yl)-1-oxoisoindol-5-yl)piperidin-4-yl)methyl)-2-methylpiperazin-1-yl)pyridin-3-yl)-1H-pyrazolo[3,4-d]pyrimidin-3-yl)benzyl)-5-fluoro-2-methoxybenzamide] | < 25 nM | 
12 | COc1ccc(F)cc1C(=O)NCc1ccc(-c2nn(-c3ccc(C4CCN(CC5CCN(c6ccc7c(c6)C(=O)N(C6CCC(=O)NC6=O)C7)CC5)CC4)cc3)c(N)c2C(N)=O)cc1 (stereo not drawn) [II-39] | < 25 nM | 
13 | Nc1ncnc2c1c(-c1ccc(Oc3ccccc3)cc1)nn2-c1ccc(N2CCN(C[C@@H]3CCCC[C@H]3CN3CCN(c4ccc5c(c4)CN(C4CCC(=O)NC4=O)C5=O)CC3)CC2)nc1 (stereo partly drawn) [III-19, 3-(5-(4-(((1R,2R)-2-((4-(5-(4-amino-3-(4-phenoxyphenyl)-1H-pyrazolo[3,4-d]pyrimidin-1-yl)pyridin-2-yl)piperazin-1-yl)methyl)cyclohexyl)methyl)piperazin-1-yl)-1-oxoisoindolin-2-yl)piperidine-2,6-dione] | < 100 nM | 
14 | Cc1cc(N2CCN(C[C@@H]3CCCC[C@H]3CN3CCN(c4ccc(-n5nc(-c6ccc(Oc7ccccc7)cc6)c6c(N)ncnc65)cn4)CC3)CC2)ccc1N1CCC(=O)NC1=O [III-20, 1-(4-(4-(((1R,2R)-2-((4-(5-(4-amino-3-(4-phenoxyphenyl)-1H-pyrazolo[3,4-d]pyrimidin-1-yl)pyridin-2-yl)piperazin-1-yl)methyl)cyclohexyl)methyl)piperazin-1-yl)-2-methylphenyl)dihydropyrimidine-2,4(1H,3H)-dione] | < 500 nM | 
15 | C=CC(=O)N1CCC[C@@H](n2nc(-c3ccc(Oc4ccccc4)cc3)c3c(N)ncnc32)C1 [Ibrutinib, ibrutinib, reference compound] |  | TGITV (Relative tumor volume inhibition rate) (Mino cell xenograft; 50 mg/kg): 40.73%; Tumor volume (Mino cell xenograft; 50 mg/kg): 3018.11 ± 1293.65 mm^3
